Data as given in US10662189B2, “PDE4 inhibitor” (SHIJIAZHUANG SAGACITY NEW DRUG DEVELOPMENT CO., LTD., priority 2016, dated 2020).

biological target: Recombinant human PDE4B (Homo sapiens (Human), UniProt Q07343); assay: Inhibitory activity against PDE 4B in vitro (fluorescence polarization, Transcreener AMP2/GMP2); assay type: biochemical; details: 1 μM cAMP
Method: Inhibitory activity of the compounds against PDE 4B
The enzyme activity was indicated by measuring the AMP/GMP expression and tracing AMP/GMP antibody binding based on fluorescence polarization in the biological assay.
10 mM Tris-HCl (pH 7.5), 5 mM MgCl2, 0.01% Brij 35, 1 mM DTT and 1% DMSO.
Recombinant human PDE4B (Gen accession number: NM_002600; amino acid 305 end) was expressed by baculovirus in Sf9 insect cells using an N-terminal GST tag. MW=78 kDa.
Transcreener® AMP2/GMP2 antibody and AMP2/GMP2 AlexaFluor633 tracer
i) Recombinant human PDE4B and the enzyme substrate (1 μM cAMP) were dissolved in the newly-prepared buffer solution, respectively.
ii) The PDE4B buffer solution defined as above was transferred into the reaction wells.
iii) The compound which was dissolved in 100% DMSO was added to the reaction wells of the PDE4B buffer solution by ultrasonic oscillator (echo 550; nanoliter range) and incubated at room temperature for 10 minutes.
iv) The enzymatic buffer solution was then added to the reaction wells defined as above to initiate the reaction.
v) The reaction was incubated at room temperature for 1 hour.
vi) The reaction was terminated by adding detecting mixture (Transcreener® AMP2/GMP2 antibody and AMP2/GMP2 AlexaFluor633 tracer) and incubated for 90 minutes with slowly mixing. The measurement range of fluorescence polarization is Ex/Em=620/688.
The fluorescence polarization signal was converted into nM according to the AMP/GMP standard curve and the percent enzyme activity relative to DMSO calculated by Excel. GraphPad Prism was used to plot the curves (Drawing Medicine Icon).

Sequence of Recombinant human PDE4B (Q07343 305-736 limits assumed): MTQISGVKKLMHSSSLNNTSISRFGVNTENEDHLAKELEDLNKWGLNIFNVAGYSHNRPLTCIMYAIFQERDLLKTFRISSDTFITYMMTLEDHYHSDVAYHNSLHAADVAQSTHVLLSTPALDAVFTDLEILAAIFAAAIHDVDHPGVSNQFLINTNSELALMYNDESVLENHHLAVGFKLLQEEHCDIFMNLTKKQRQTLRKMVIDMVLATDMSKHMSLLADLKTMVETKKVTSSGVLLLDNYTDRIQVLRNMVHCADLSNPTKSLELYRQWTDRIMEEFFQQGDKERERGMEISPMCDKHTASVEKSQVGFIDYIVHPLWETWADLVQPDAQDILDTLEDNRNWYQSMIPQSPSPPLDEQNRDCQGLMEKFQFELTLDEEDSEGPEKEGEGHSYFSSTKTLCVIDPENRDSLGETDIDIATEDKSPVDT

Compared with COc1ccc(C(CS(C)(=O)=O)n2c(=O)[nH]c3c(-c4ccccc4F)ccnc32)cc1OC (single isomer, unassigned) [WX072], CCOc1cc([C@@H](CS(C)(=O)=O)n2c(=O)[nH]c3c(Cc4ccccc4F)ccnc32)ccc1OC [WX068] is 11-fold lower in IC50: 24.6 nM for the first, 2.24 nM for the second. The second is the more potent here.

CCOc1cc([C@@H](CS(C)(=O)=O)n2c(=O)[nH]c3cc(Cl)cnc32)ccc1OC [WX001] and CCOc1cc([C@@H](CS(C)(=O)=O)n2c(=O)[nH]c3cc(F)cnc32)ccc1OC [WX003] are within 1.5-fold of each other in IC50: 9.48 nM for the first, 10.6 nM for the second.

CCOc1cc([C@@H](CS(C)(=O)=O)n2c(=O)[nH]c3cc(C(F)(F)F)cnc32)ccc1OC [WX002] and CCOc1cc([C@@H](CS(C)(=O)=O)n2c(=O)[nH]c3cc(Br)cnc32)ccc1OC [WX004] are within 1.5-fold of each other in IC50: 5.66 nM for the first, 7.09 nM for the second.

Compared with CCOc1cc([C@@H](CS(C)(=O)=O)n2c(=O)[nH]c3cc(C4CC4)cnc32)ccc1OC [WX005], CCOc1cc([C@@H](CS(C)(=O)=O)n2c(=O)[nH]c3cc(C)cnc32)ccc1OC [WX020] is 13-fold higher in IC50: 5.03 nM for the first, 65.8 nM for the second.

Compared with CCOc1cc([C@@H](CS(C)(=O)=O)n2c(=O)[nH]c3cc(Cc4ccccc4F)cnc32)ccc1OC [WX006], CCOc1cc([C@@H](CS(C)(=O)=O)n2c(=O)[nH]c3cc(-c4ccccc4F)cnc32)ccc1OC [WX009] is 2.1-fold lower in IC50: 1.8 nM for the first, 0.86 nM for the second. The second is the more potent here.

Compared with CCOc1cc([C@@H](CS(C)(=O)=O)n2c(=O)[nH]c3cc(C=C(C)C)cnc32)ccc1OC [WX007], CCOc1cc([C@@H](CS(C)(=O)=O)n2c(=O)[nH]c3cc(CO)cnc32)ccc1OC [WX023] is 24-fold higher in IC50: 2.81 nM for the first, 68.1 nM for the second.

Going from CCOc1cc([C@@H](CS(C)(=O)=O)n2c(=O)[nH]c3cc(CC(C)C)cnc32)ccc1OC [WX008] to CCOc1cc([C@@H](CS(C)(=O)=O)n2c(=O)[nH]c3cc(C#N)cnc32)ccc1OC [WX022], the IC50 rises from 4.89 nM to 26.5 nM (5.4-fold). The first is the more potent here.

CCOc1cc([C@@H](CS(C)(=O)=O)n2c(=O)[nH]c3cc(-c4ccccc4)cnc32)ccc1OC [WX010] and CCOc1cc([C@@H](CS(C)(=O)=O)n2c(=O)[nH]c3cc(-c4cccc(F)c4)cnc32)ccc1OC [WX011] are within 1.5-fold of each other in IC50: 2.6 nM for the first, 3.4 nM for the second.

Going from CCOc1cc([C@@H](CS(C)(=O)=O)n2c(=O)[nH]c3cc(-c4ccc(F)cc4)cnc32)ccc1OC [WX012] to CCOc1cc([C@@H](CS(C)(=O)=O)n2c(=O)[nH]c3cc(-c4ccncc4)cnc32)ccc1OC [WX035], the IC50 rises from 3.9 nM to 15.5 nM (4-fold). The first is the more potent here.

CCOc1cc([C@@H](CS(C)(=O)=O)n2c(=O)[nH]c3cc(-c4cccc(F)c4F)cnc32)ccc1OC [WX013] and CCOc1cc([C@@H](CS(C)(=O)=O)n2c(=O)[nH]c3cc(-c4c(F)cccc4F)cnc32)ccc1OC [WX033] are within 1.5-fold of each other in IC50: 0.994 nM for the first, 0.671 nM for the second.

CCOc1cc([C@@H](CS(C)(=O)=O)n2c(=O)[nH]c3cc(-c4ccccc4C)cnc32)ccc1OC [WX014] and CCOc1cc([C@@H](CS(C)(=O)=O)n2c(=O)[nH]c3cc(-c4ccccc4Cl)cnc32)ccc1OC [WX016] cannot be ordered by IC50: < 0.5 nM for the first, < 0.5 nM for the second.

Compared with CCOc1cc([C@@H](CS(C)(=O)=O)n2c(=O)[nH]c3cc(-c4ccccc4C(C)C)cnc32)ccc1OC [WX015], CCOc1cc([C@@H](CS(C)(=O)=O)n2c(=O)[nH]c3cc(-c4ccccc4OC)cnc32)ccc1OC [WX017] is 1.6-fold lower in IC50: 1.04 nM for the first, 0.641 nM for the second. The second is the more potent here.

Compared with CCOc1cc([C@@H](CS(C)(=O)=O)n2c(=O)[nH]c3cc(-c4ccccc4C(F)(F)F)cnc32)ccc1OC [WX018], CCOc1cc([C@@H](CS(C)(=O)=O)n2c(=O)[nH]c3cc(Oc4ccccc4C(F)(F)F)cnc32)ccc1OC [WX043] is 6.5-fold higher in IC50: 0.391 nM for the first, 2.53 nM for the second.

Going from CCOc1cc([C@@H](CS(C)(=O)=O)n2c(=O)[nH]c3cc(-c4cn[nH]c4)cnc32)ccc1OC [WX019] to CCOc1cc([C@@H](CS(C)(=O)=O)n2c(=O)[nH]c3cc(-c4cccnc4)cnc32)ccc1OC [WX025], the IC50 rises from 3.38 nM to 9.53 nM (2.8-fold).

Compared with CCOc1cc([C@@H](CS(C)(=O)=O)n2c(=O)[nH]c3cc(-n4ccccc4=O)cnc32)ccc1OC [WX021], CCOc1cc([C@@H](CS(C)(=O)=O)n2c(=O)[nH]c3cc(-c4ccccc4CC)cnc32)ccc1OC [WX030] is 51-fold lower in IC50: 26.1 nM for the first, 0.515 nM for the second. The second is the more potent here.

Compared with CCOc1cc([C@@H](CS(C)(=O)=O)n2c(=O)n(Cc3ccccc3F)c3cc(Cc4ccccc4F)cnc32)ccc1OC [WX024], CCOc1cc([C@@H](CS(C)(=O)=O)n2c(=O)n(Cc3ccccc3F)c3cc(Br)cnc32)ccc1OC [WX053] is 1.8-fold lower in IC50: 2.7 nM for the first, 1.49 nM for the second.

CCOc1cc([C@@H](CS(C)(=O)=O)n2c(=O)[nH]c3cc(-c4ncccn4)cnc32)ccc1OC [WX026] and CCOc1cc([C@@H](CS(C)(=O)=O)n2c(=O)[nH]c3cc(Oc4ncccn4)cnc32)ccc1OC [WX042] are within 1.5-fold of each other in IC50: 4.51 nM for the first, 5.42 nM for the second.

CCOc1cc([C@@H](CS(C)(=O)=O)n2c(=O)[nH]c3cc(-c4cncnc4)cnc32)ccc1OC [WX027] and CCOc1cc([C@@H](CS(C)(=O)=O)n2c(=O)[nH]c3cc(-c4cncnc4C)cnc32)ccc1OC [WX029] are within 1.5-fold of each other in IC50: 19.1 nM for the first, 14.8 nM for the second.

CCOc1cc([C@@H](CS(C)(=O)=O)n2c(=O)[nH]c3cc(-c4nccc(C)n4)cnc32)ccc1OC [WX028] and CCOc1cc([C@@H](CS(C)(=O)=O)n2c(=O)[nH]c3cc(-c4nccnc4C)cnc32)ccc1OC [WX038] are within 1.5-fold of each other in IC50: 9.7 nM for the first, 14.5 nM for the second.

Going from CCOc1cc([C@@H](CS(C)(=O)=O)n2c(=O)[nH]c3cc(-c4ccccc4OCC)cnc32)ccc1OC [WX031] to CCOc1cc([C@@H](CS(C)(=O)=O)n2c(=O)[nH]c3cc(-c4ccccc4C#N)cnc32)ccc1OC [WX032], the IC50 falls from 0.861 nM to 0.234 nM (3.7-fold).

Compared with CCOc1cc([C@@H](CS(C)(=O)=O)n2c(=O)[nH]c3cc(-c4c(C)ncnc4C)cnc32)ccc1OC [WX034], CCOc1cc([C@@H](CS(C)(=O)=O)n2c(=O)[nH]c3cc(-c4nnccc4C)cnc32)ccc1OC [WX039] is 4.2-fold higher in IC50: 5.18 nM for the first, 21.7 nM for the second.

First: CCOc1cc([C@@H](CS(C)(=O)=O)n2c(=O)[nH]c3cc(-c4cscn4)cnc32)ccc1OC [WX036]
Second: CCOc1cc([C@@H](CS(C)(=O)=O)n2c(=O)[nH]c3cc(-c4ncccc4F)cnc32)ccc1OC [WX037]
The IC50 of the first is 1.6-fold lower: 6.27 nM for the first, 10.2 nM for the second. The first is the more potent here.

Compared with CCOc1cc([C@@H](CS(C)(=O)=O)n2c(=O)[nH]c3cc(C4=CCN(C(=O)OC(C)(C)C)CC4)cnc32)ccc1OC [WX040], CCOc1cc([C@@H](CS(C)(=O)=O)n2c(=O)n(C)c3cc(OC)cnc32)ccc1OC [WX041] is 1.6-fold higher in IC50: 10.4 nM for the first, 16.4 nM for the second. The first is the more potent here.

Compared with CCOc1cc([C@@H](CS(C)(=O)=O)n2c(=O)n(-c3ccccc3)c3cc(Br)cnc32)ccc1OC [WX044], CCOc1cc([C@@H](CS(C)(=O)=O)n2c(=O)n(C)c3cc(Br)cnc32)ccc1OC [WX050] is 2.4-fold lower in IC50: 26.6 nM for the first, 11 nM for the second.

CCOc1cc([C@@H](CS(C)(=O)=O)n2c(=O)n(C3CC3)c3cc(Br)cnc32)ccc1OC [WX045] and CCOc1cc([C@@H](CS(C)(=O)=O)n2c(=O)n(CCOC)c3cc(Br)cnc32)ccc1OC [WX051] are within 1.5-fold of each other in IC50: 6.5 nM for the first, 9.1 nM for the second.

Going from CCOc1cc([C@@H](CS(C)(=O)=O)n2c(=O)n(C3CC3)c3cc(-c4ccccc4F)cnc32)ccc1OC [WX046] to CCOc1cc([C@@H](CS(C)(=O)=O)n2c(=O)n(C3CCC3)c3cc(-c4ccccc4F)cnc32)ccc1OC [WX062], the IC50 falls from 7.79 nM to 3.5 nM (2.2-fold).

Going from CCOc1cc([C@@H](CS(C)(=O)=O)n2c(=O)n(CC(F)F)c3cc(Cl)cnc32)ccc1OC [WX047] to CCOc1cc([C@@H](CS(C)(=O)=O)n2c(=O)n(CC(F)F)c3cc(F)cnc32)ccc1OC [WX049], the IC50 rises from 41.6 nM to 90.7 nM (2.2-fold).

Going from CCOc1cc([C@@H](CS(C)(=O)=O)n2c(=O)n(CC(F)(F)F)c3cc(Cl)cnc32)ccc1OC [WX048] to CCOc1cc([C@@H](CS(C)(=O)=O)n2c(=O)n(CCS(C)(=O)=O)c3cc(Br)cnc32)ccc1OC [WX052], the IC50 falls from 19.8 nM to 8.2 nM (2.4-fold).

CCOc1cc([C@@H](CS(C)(=O)=O)n2c(=O)n(Cc3nccc(C)n3)c3cc(Br)cnc32)ccc1OC [WX054] and CCOc1cc([C@@H](CS(C)(=O)=O)n2c(=O)n(Cc3cncc(C)n3)c3cc(Br)cnc32)ccc1OC [WX055] are within 1.5-fold of each other in IC50: 6.9 nM for the first, 6.99 nM for the second.

First: CCOC(=O)Cn1c(=O)n([C@H](CS(C)(=O)=O)c2ccc(OC)c(OCC)c2)c2ncc(Br)cc21 [WX056]
Second: CCOc1cc(C(CS(C)(=O)=O)n2c(=O)oc3cc(Br)cnc32)ccc1OC (centres unmarked) [WX070]
The IC50 of the first is 22-fold lower: 3.4 nM for the first, 73.8 nM for the second. The first is the more potent here.

CCOc1cc([C@@H](CS(C)(=O)=O)n2c(=O)n(CC)c3cc(-c4ccccc4F)cnc32)ccc1OC [WX058] and CCOc1cc([C@@H](CS(C)(=O)=O)n2c(=O)n(CCO)c3cc(-c4ccccc4F)cnc32)ccc1OC [WX059] are within 1.5-fold of each other in IC50: 1.99 nM for the first, 2.02 nM for the second.

Going from CCOc1cc([C@@H](CS(C)(=O)=O)n2c(=O)n(C(C)C)c3cc(-c4ccccc4F)cnc32)ccc1OC [WX060] to CCOc1cc([C@@H](CS(C)(=O)=O)n2c(=O)n(CC#N)c3cc(-c4ccccc4F)cnc32)ccc1OC [WX061], the IC50 falls from 3.48 nM to 0.989 nM (3.5-fold).

Compared with CCOc1cc([C@@H](CS(C)(=O)=O)n2c(=O)[nH]c3c(C)c(-c4ccccc4)cnc32)ccc1OC [WX064], CCOc1cc(C(CS(C)(=O)=O)n2c(=O)oc3cc(-c4ccccc4F)cnc32)ccc1OC (centres unmarked) [WX071] is 3-fold lower in IC50: 2.23 nM for the first, 0.74 nM for the second. The second is the more potent here.

First: CCOc1cc(C(CS(C)(=O)=O)N2C(=O)Cc3cc(Br)cnc32)ccc1OC (centres unmarked) [WX069]
Second: CCOc1cc(C(CS(C)(=O)=O)n2c(=O)[nH]c3cc(-c4ccccc4F)cnc32)ccc1OC(F)F (centres unmarked) [WX073]
The IC50 of the first is higher: 47.8 nM for the first, < 0.5 nM for the second. The second is the more potent here.
